# Assay results from patent US6440690B1, “Peptides for the activation of the immune system in humans and animals” (priority 1995, dated 2002).
# “Also recorded” adds a separate entry of the source. Ends that are not written are not given here.
# Legend:
# Leishmania major [1] = test: Murine cutaneous leishmaniasis, drug administration to infected Balb/c mice (TABLE V); assay type: in vivo
# Source text: To investigate the peptide's efficacy in affecting leishmania parasites in vivo, murine cutaneous-leishmaniasis models were used in which mice inoculated with Leishmania major promastigotes were allowed to develop a characteristic cutaneous lesion that attained a mean diameter of […] at day 27 of inoculation. Frommel et al., 1988 , Infection and Immunity 56:843. Treatment consisted of 3 peptide injections at intervals of 5 days and was compared with the effect induced by sodium stibogluconate, the current anti-leishmaniasis drug of choice. After injections, samples drawn periodically from the lesion area were analyzed for assessment of parasites evolution.
# Methods: Female mice, 6 to 8 weeks old, were inoculated with Leishmania major promastigotes (1×10^6) at the proximal portion of the tail as described in Frommel et al., 1988, Infection and Immunity 56:843. […] Simultaneously, evolution of the cutaneous lesion was assessed by direct measurement of the necrotic zone of the lesion.
# Methods. Cytokine concentrations in serum of treated and untreated Balb/c mice were determined by enzyme-immunoassay (Kit Genzyme®) using murine anti-IFN-γ or anti-TNF-α monoclonal antibodies and the corresponding rabbit polyclonal antibodies conjugated to peroxidase, following the manufacturer instructions.
# Leishmania major [2] = test: Murine cutaneous leishmaniasis, SPYY i.v. in Balb/c mice; assay type: in vivo; conditions: same doses as SPYY, 6 mice
# Pseudonomas aeruginosa = conditions: U.S. Pat. No. 5,221,664; cited from earlier work
# [3] = test system: pathogenic microorganisms including bacteria, yeasts, filamentous fungi and protozoa; test: Antimicrobial activity on the spectrum of microorganisms of TABLE I; assay type: cell-based; conditions: same experimental conditions
# Method: Methods. […] Antimicrobial assays were performed as described in Mor and Nicolas, 1994, J. Biol. Chem. 269:1934-1939. The effect on leishmania was assessed after 1 hour peptide exposure by counting living cells following trypan blue […]. Promastigotes were cultured (1×10^5 cells/ml) at 26° C. […] Trop. Med. Parasitol. 78:423-425, and cultured (1×10^4 cells/ml) at 37° C. Reversibility of inhibition was assessed by incubating 0.5 ml suspension containing 1×10^6 cells/ml in culture media in presence of peptide concentration of 0.2 mg/ml. After various incubation periods, aliquots were centrifuged at 900 g, the pellet washed and reincubated for 24 hours in fresh culture medium.
# To verify the reversibility of inhibition, treated suspensions were thoroughly washed at various periods and reincubated in fresh medium.
# [4] = Dissipation of Diffusion Potential Assay (membrane permeation); conditions: SUV pretreated with diS-C2-5 and valinomycin
# Method: Methods: Small unilamellar vesicles (SUV) were prepared by sonication of PC/PS (1:1 w/w) and cholesterol (10% by weight) as described in Shai et al., 1991, J. Biol. Chem. 266:22346-54. Membrane permeation was assessed using the diffusion potential assay. Sims et al., 1974, Biochemistry 13:3315-3330; Shai et al., 1991, J. Biol. Chem. 266:22346-54. […] Maximal activity of the peptides was plotted versus peptide/lipid molar ratio.
# Leishmania = conditions: 300 mg/kg for 20-40 injections; cited from earlier work
compound,measurement,setting,value
"O.O.O.O.O.O.O.O.O.O=C([O-])[C@@H]1[O][Sb]2([O-])([O][Sb]34([OH])[O][C@H]([C@H](O)CO)[C@H]([O]3)[C@H](C(=O)[O-])[O]4)[O][C@H]([C@H](O)CO)[C@@H]1[O]2.[Na+].[Na+].[Na+] [NaSG, sodium stibogluconate]",outcome of the cutaneous lesion / disease,"Leishmania major [1]; Balb/c, up to twelve weeks post inoculation and later",reduced; also recorded: complete healing or skin cicatrization were not observed
same,reduction of number of parasites and lesion size,"Leishmania major [1]; mouse, in vivo",partially effective
"EEEKRENEDEEKQDDEQSEM [acidic peptide, helical acidic synthetic peptide, control]",control peptide compared with physiological water control,Leishmania major [2],No significant differences
Magainin II: magainin peptide,MIC,Pseudonomas aeruginosa,256 µM
"NPY: human NPY, 36-residue peptide of the pancreatic peptide family",antimicrobial potency compared with SPYY,[3],inhibitory activity at comparable concentrations
PEEMNKYLTALRHYINLVTRQRY-NH2 [SPYY14-36],membrane permeation,[4],permeated phospholipid vesicles
same,antimicrobial potency compared with SPYY,[3],comparable molar potency
"PYY: human PYY, 36-residue peptide of the pancreatic peptide family",antimicrobial potency compared with SPYY,[3],inhibitory activity at comparable concentrations
meglumine antimoniate [Glucantime],outcome of therapy,Leishmania,does not cure the disease but only results in a transient reduction of the symptoms
